ChEMBL document CHEMBL1201862, “PubChem BioAssay data set” (2004)
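Grown in 96-well plates, cells were treated for 48 hours with each compound at five concentrations. Insufficient inhibition: endpoint recorded as highest concentration tested. Here, GI50 denotes the concentration required for 50% inhibition of growth.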 The source made the active and inactive calls. No stated cut-off is given here; in the data, active = GI50 up to about 1.1 µM and inactive = higher.

Columns and labels:
Experiment in all cases: DTP human tumour cell line panel, 48 h
786-0 = tested on: 786-0
A498 = tested on: A498
A549 = tested on: A549
ACHN = tested on: ACHN
BT-549 = tested on: BT-549
CCRF-CEM = tested on: CCRF-CEM
COLO 205 = tested on: COLO 205
DU-145 = tested on: DU-145
EKVX = tested on: EKVX
HCC 2998 = tested on: HCC 2998
HCT-116 = tested on: HCT-116
HCT-15 = tested on: HCT-15
HL-60 = tested on: HL-60
HOP-62 = tested on: HOP-62
HOP-92 = tested on: HOP-92
HT-29 = tested on: HT-29
Hs-578T = tested on: Hs-578T
IGROV-1 = tested on: IGROV-1
K562 = tested on: K562
KM12 = tested on: KM12
LOX IMVI = tested on: LOX IMVI
M14 = tested on: M14
MCF7 = tested on: MCF7
MDA-MB-231 = tested on: MDA-MB-231
MDA-MB-435 = tested on: MDA-MB-435
MDA-N = tested on: MDA-N
MOLT-4 = tested on: MOLT-4
Malme-3M = tested on: Malme-3M
NCI-H226 = tested on: NCI-H226
NCI-H23 = tested on: NCI-H23
NCI-H460 = tested on: NCI-H460
NCI-H522 = tested on: NCI-H522
NCI/ADR-RES = tested on: NCI/ADR-RES
OVCAR-3 = tested on: OVCAR-3
OVCAR-4 = tested on: OVCAR-4
OVCAR-5 = tested on: OVCAR-5
OVCAR-8 = tested on: OVCAR-8
PC-3 = tested on: PC-3
RPMI-8226 = tested on: RPMI-8226
RXF 393 = tested on: RXF 393
SF-268 = tested on: SF-268
SF-295 = tested on: SF-295
SF-539 = tested on: SF-539
SK-MEL-28 = tested on: SK-MEL-28
SK-MEL-2 = tested on: SK-MEL-2
SK-MEL-5 = tested on: SK-MEL-5
SK-OV-3 = tested on: SK-OV-3
SN12C = tested on: SN12C
SNB-19 = tested on: SNB-19
SNB-75 = tested on: SNB-75
SR = tested on: SR
SW-620 = tested on: SW-620
T47D = tested on: T47D
TK-10 = tested on: TK-10
U-251 = tested on: U-251
UACC-257 = tested on: UACC-257
UACC-62 = tested on: UACC-62
UO-31 = tested on: UO-31
CAKI-1 = tested on: CAKI-1

C=C1CCC2C(C)(CO)C(O)CCC2(C)C1C/C=C1\C(=O)OCC1O (configuration not stated)
GI50 (786-0): 5.4 µM (inactive) | GI50 (A498): 32.7 µM (inactive) | GI50 (A549): 23.8 µM (inactive) | GI50 (ACHN): 29 µM (inactive) | GI50 (BT-549): 7.53 µM (inactive) | GI50 (CCRF-CEM): 3.87 µM (inactive) | GI50 (COLO 205): 14.8 µM (inactive) | GI50 (DU-145): 38.8 µM (inactive) | GI50 (EKVX): 29.3 µM (inactive) | GI50 (HCC 2998): 22.5 µM (inactive) | GI50 (HCT-116): 14.7 µM (inactive) | GI50 (HCT-15): 14.6 µM | GI50 (HL-60): 16.2 µM (inactive) | GI50 (HOP-62): 28.2 µM (inactive) | GI50 (HOP-92): 27.8 µM (inactive) | GI50 (HT-29): 5.28 µM (inactive) | GI50 (Hs-578T): 36.6 µM (inactive) | GI50 (IGROV-1): 18.2 µM (inactive) | GI50 (K562): 3.24 µM (inactive) | GI50 (KM12): 14.1 µM (inactive) | GI50 (LOX IMVI): 12.6 µM (inactive) | GI50 (M14): 17.8 µM (inactive) | GI50 (MCF7): 15.7 µM (inactive) | GI50 (MDA-MB-231): 26.4 µM (inactive) | GI50 (MDA-MB-435): 10.3 µM (inactive) | GI50 (MDA-N): 9.31 µM (inactive) | GI50 (MOLT-4): 28.2 µM (inactive) | GI50 (Malme-3M): 15.6 µM (inactive) | GI50 (NCI-H226): 39.8 µM (inactive) | GI50 (NCI-H23): 21.6 µM (inactive) | GI50 (NCI-H460): 21.2 µM (inactive) | GI50 (NCI-H522): 10.4 µM (inactive) | GI50 (NCI/ADR-RES): 25 µM (inactive) | GI50 (OVCAR-3): 9.4 µM (inactive) | GI50 (OVCAR-4): 11.1 µM (inactive) | GI50 (OVCAR-5): 17.1 µM (inactive) | GI50 (OVCAR-8): 10.1 µM (inactive) | GI50 (PC-3): 20.1 µM (inactive) | GI50 (RPMI-8226): 5.42 µM (inactive) | GI50 (RXF 393): 18.7 µM (inactive) | GI50 (SF-268): 31.1 µM (inactive) | GI50 (SF-295): 19.9 µM (inactive) | GI50 (SF-539): 20.6 µM (inactive) | GI50 (SK-MEL-28): 13.9 µM (inactive) | GI50 (SK-MEL-2): 15.2 µM (inactive) | GI50 (SK-MEL-5): 14.1 µM (inactive) | GI50 (SK-OV-3): 24 µM (inactive) | GI50 (SN12C): 15.2 µM (inactive) | GI50 (SNB-19): 54.8 µM (inactive) | GI50 (SNB-75): 15.4 µM (inactive) | GI50 (SR): 1.01 µM (active) | GI50 (SW-620): 9.71 µM (inactive) | GI50 (T47D): 24.7 µM (inactive) | GI50 (TK-10): 52.8 µM (inactive) | GI50 (U-251): 11.1 µM (inactive) | GI50 (UACC-257): 20 µM (inactive) | GI50 (UACC-62): 18.8 µM (inactive) | GI50 (UO-31): 36.3 µM (inactive)

Nc1ccccc1SC(C[N+](=O)[O-])c1ccc2c(c1)OCO2 (configuration not stated)
GI50 (786-0): 1.66 µM (inactive) | GI50 (A498): 8.39 µM (inactive) | GI50 (A549): 3.1 µM (inactive) | GI50 (ACHN): 6.46 µM (inactive) | GI50 (BT-549): 4.22 µM (inactive) | GI50 (CAKI-1): 13.7 µM (inactive) | GI50 (COLO 205): 3.71 µM (inactive) | GI50 (DU-145): 2.62 µM (inactive) | GI50 (EKVX): 3.89 µM (inactive) | GI50 (HCC 2998): 1.78 µM (inactive) | GI50 (HCT-116): 1.81 µM (inactive) | GI50 (HCT-15): 3.01 µM | GI50 (HL-60): 1.9 µM (inactive) | GI50 (HOP-62): 2.12 µM (inactive) | GI50 (HOP-92): 15.6 µM (inactive) | GI50 (HT-29): 1.89 µM (inactive) | GI50 (Hs-578T): 5.64 µM (inactive) | GI50 (IGROV-1): 1.51 µM (inactive) | GI50 (K562): 1.63 µM (inactive) | GI50 (KM12): 2.44 µM (inactive) | GI50 (LOX IMVI): 1.75 µM (inactive) | GI50 (M14): 1.62 µM (inactive) | GI50 (MCF7): 2.99 µM (inactive) | GI50 (MDA-MB-231): 7.1 µM (inactive) | GI50 (MDA-MB-435): 2.32 µM (inactive) | GI50 (MDA-N): 1.75 µM (inactive) | GI50 (MOLT-4): 2.3 µM (inactive) | GI50 (Malme-3M): 15.7 µM (inactive) | GI50 (NCI-H226): 11.2 µM (inactive) | GI50 (NCI-H23): 3.08 µM (inactive) | GI50 (NCI-H460): 2.12 µM (inactive) | GI50 (NCI-H522): 14.1 µM (inactive) | GI50 (NCI/ADR-RES): 20.5 µM (inactive) | GI50 (OVCAR-3): 3.28 µM (inactive) | GI50 (OVCAR-4): 11.6 µM (inactive) | GI50 (OVCAR-5): 3.65 µM (inactive) | GI50 (OVCAR-8): 2.78 µM (inactive) | GI50 (PC-3): 7.66 µM (inactive) | GI50 (RPMI-8226): 1.22 µM (inactive) | GI50 (RXF 393): 1.8 µM (inactive) | GI50 (SF-268): 7.55 µM (inactive) | GI50 (SF-295): 4.89 µM (inactive) | GI50 (SF-539): 2.24 µM (inactive) | GI50 (SK-MEL-28): 3.4 µM (inactive) | GI50 (SK-MEL-2): 14.6 µM (inactive) | GI50 (SK-MEL-5): 3.26 µM (inactive) | GI50 (SK-OV-3): 4.54 µM (inactive) | GI50 (SN12C): 3.37 µM (inactive) | GI50 (SNB-19): 12 µM (inactive) | GI50 (SNB-75): 2.34 µM (inactive) | GI50 (SR): 1.91 µM (inactive) | GI50 (SW-620): 2.31 µM (inactive) | GI50 (T47D): 4.18 µM (inactive) | GI50 (TK-10): 2.63 µM (inactive) | GI50 (U-251): 2.64 µM (inactive) | GI50 (UACC-257): 1.81 µM (inactive) | GI50 (UACC-62): 13.2 µM (inactive) | GI50 (UO-31): 1.87 µM (inactive)

O=c1[nH]/c(=C/c2ccc(OCc3ccccc3)cn2)c(=O)[nH]/c1=C/c1ccc(F)cc1
GI50 (786-0): 0.447 µM (active) | GI50 (A498): 0.834 µM (active) | GI50 (A549): 1.8 µM (inactive) | GI50 (ACHN): 1.72 µM (inactive) | GI50 (BT-549): 4.97 µM (inactive) | GI50 (CCRF-CEM): 0.458 µM (active) | GI50 (COLO 205): 0.55 µM (active) | GI50 (DU-145): 0.931 µM (active) | GI50 (EKVX): 3.49 µM (inactive) | GI50 (HCC 2998): 1.42 µM (inactive) | GI50 (HCT-116): 0.461 µM (active) | GI50 (HCT-15): 0.157 µM | GI50 (HL-60): 0.217 µM (active) | GI50 (HOP-62): 0.239 µM (active) | GI50 (HOP-92): 0.586 µM (active) | GI50 (HT-29): 0.434 µM (active) | GI50 (Hs-578T): 0.542 µM (active) | GI50 (IGROV-1): 0.335 µM (active) | GI50 (K562): 0.154 µM (active) | GI50 (KM12): 0.344 µM (active) | GI50 (LOX IMVI): 1.62 µM (inactive) | GI50 (M14): 0.698 µM (active) | GI50 (MCF7): 0.301 µM (active) | GI50 (MDA-MB-231): 8.13 µM (inactive) | GI50 (MDA-MB-435): 0.0902 µM (active) | GI50 (MDA-N): 0.069 µM (active) | GI50 (MOLT-4): 0.4 µM (active) | GI50 (Malme-3M): 0.759 µM (active) | GI50 (NCI-H226): 2.22 µM (inactive) | GI50 (NCI-H23): 2.89 µM (inactive) | GI50 (NCI-H460): 0.541 µM (active) | GI50 (NCI-H522): 0.41 µM (active) | GI50 (NCI/ADR-RES): 0.614 µM (active) | GI50 (OVCAR-3): 0.207 µM (active) | GI50 (OVCAR-5): > 33.3 µM (inactive) | GI50 (OVCAR-8): 3.74 µM (inactive) | GI50 (PC-3): 0.632 µM (active) | GI50 (RPMI-8226): 0.194 µM (active) | GI50 (RXF 393): 0.243 µM (active) | GI50 (SF-268): 1.73 µM (inactive) | GI50 (SF-295): 0.33 µM (active) | GI50 (SF-539): 0.923 µM (active) | GI50 (SK-MEL-2): 7.35 µM (inactive) | GI50 (SK-MEL-5): 0.366 µM (active) | GI50 (SK-OV-3): 0.794 µM (active) | GI50 (SN12C): 0.785 µM (active) | GI50 (SNB-19): 2.3 µM (inactive) | GI50 (SNB-75): 0.409 µM (active) | GI50 (SR): 0.0815 µM (active) | GI50 (SW-620): 0.416 µM (active) | GI50 (T47D): 1.42 µM (inactive) | GI50 (TK-10): 4.36 µM (inactive) | GI50 (U-251): 1.05 µM (active) | GI50 (UACC-257): 0.512 µM (active) | GI50 (UACC-62): 0.938 µM (active) | GI50 (UO-31): 0.498 µM (active)
